Data from patent US20100324067A1, “TETRACYCLIC DIPYRANO-COUMARIN COMPOUNDS WITH ANTI-HIV AND ANTI-MYCOBACTERIUM TUBERCULOSIS ACTIVITIES” (priority 2007, published 2010).
In brackets after ≈: the same amount, converted by molar mass. Like-named read-outs stand apart in the source and are kept apart here.

Tests used:
[1] = tested on: Mycobacterium tuberculosis H37Rv (ATCC 27294); assay: Microplate Alamar Blue Assay (MABA) in BACTEC 12B medium (TAACF screen); format: cell-based; conditions: for IC50: read-out: IC50
[2] = read-out: anti-TB active compound (MIC90 less than 10 μg/mL), classification

| melting point | SMILES | IC50 ([1]; MABA, H37Rv) [µg/mL] | MIC90 ([1]; MABA, H37Rv, read-out: MIC90) [µg/mL] | further results |
| --- | --- | --- | --- | --- |
| 132 to 135 °C | CCCc1cc(=O)oc2c3c(c4c(c12)OC(C)(C)C=C4)OC(=O)CC3 | – | – | – |
| 138 to 139 °C | CCCCC1C=Cc2c3c(c4oc(=O)cc(CCC)c4c2O1)C(=O)CC(C)O3 (centres unmarked) | – | – | – |
| – | CCCCCC1CC(=O)c2c(cc(O)c3c(CCC)cc(=O)oc23)O1 (centres unmarked) [Example 5a-15] | 66 (≈ 192 µM) | > 100 | – |
| 139 to 141 °C | CCCc1cc(=S)oc2c3c(c4c(c12)OC(C)(C)C=C4)OC(C)CC3=O (centres unmarked) | – | – | – |
| – | O=c1cc(CCC(F)(F)F)c2c(O)cc(O)cc2o1 [Example 6-71, 4-(3,3′,3″-trifluoro)-n-propyl-5,7-dihydroxy-coumarin] | 2.53 (≈ 9.21 µM) | 4.06 (≈ 14.8 µM) | MIC90 [1, 2]: < 10 µg/mL |
| > 220 °C (dec.) | CCCc1cc(=O)oc2c3c(c4c(c12)OC(C)(C)C=C4)OC(CN)CC3=O (centres unmarked) | – | – | – |
| – | NCC[C@H](O)C(=O)N[C@@H]1C[C@H](N)[C@@H](O[C@H]2O[C@H](CN)[C@@H](O)[C@H](O)[C@H]2O)[C@H](O)[C@H]1O[C@H]1O[C@H](CO)[C@@H](O)[C@H](N)[C@H]1O [Amikacin, reference compound] | – | – | MIC50 ([1]; control compound): 0.09 µg/mL (≈ 0.154 µM); MIC90 ([1]; control compound, read-out: Avg MIC90): 0.12 µg/mL (≈ 0.205 µM) |
| – | CCCc1cc(=O)oc2c3c(cc(O)c12)OC(CCC)CC3=O (centres unmarked) [Example 5a-14, benzo[1,2-b:3,4-b′]-dipyranyl-5-hydroxyl-4,8-di-n-propyl-2,10-dione] | 60.2 (≈ 190 µM) | 85.8 (≈ 271 µM) | – |
| 132 to 134 °C | CC1CC(=O)c2c(c3c(c4c(CCl)cc(=O)oc24)OC(C)(C)C=C3)O1 (centres unmarked) | – | – | – |
| – | CC1CC(=O)c2c(c3c(c4c(-c5ccccc5)cc(=O)oc24)OC(C)(C)C=C3)O1 (centres unmarked) [Example 21] | 16.6 (≈ 42.8 µM) | > 100 | – |
| 154 to 155 °C | CCCc1cc(=O)oc2c3c(c4c(c12)OC(C)(C)C=C4)OC(CN1CCCCC1)CC3=O (centres unmarked) | – | – | – |
| – | CC1CC(=O)c2c(cc(O)c3c4c(c(=O)oc23)CCCC4)O1 (centres unmarked) [Example 5a-27, benzo[1,2-b:3,4-b′]-dipyranyl-5-hydroxyl-8-methyl-3,4-cyclohexyl-2,0-dione] | 94.3 (≈ 314 µM) | > 100 | – |
| – | CCCCc1cc(=O)oc2cc(O)cc(O)c12 [Example 6-36, 4-n-butyl-5,7-dihydroxy-coumarin] | 11.3 (≈ 48.4 µM) | 14.4 (≈ 61.6 µM) | – |
| – | CCCc1c(F)c(=O)oc2c3c(cc(O)c12)OC(C)CC3=O (centres unmarked) [Example 5a-31, benzo[1,2-b:3,4-b′]-dipyranyl-5-hydroxyl-8-methyl-3-fluoro-4-n-propyl-2,10-dione] | 17 (≈ 55.5 µM) | 23.5 (≈ 76.6 µM) | – |
| – | CC1CC(=O)c2c(cc3oc(=O)cc(-c4ccccc4)c3c2O)O1 (centres unmarked) [Example 5b-21, benzo[1,2-b:5,4-b′]-dipyranyl-5-hydroxyl-8-methyl-4-phenyl-2,6-dione] | 14.9 (≈ 46.1 µM) | 21.3 (≈ 66.1 µM) | – |
| 121 to 123 °C | CCc1cc(=O)oc2c3c(c4c(c12)OCC(C)=C4)OC(C)CC3=O (centres unmarked) | – | – | – |
| 157 to 159 °C | CCCc1cc(=O)oc2c(-c3cccn3Cc3ccco3)c(O)c3c(c12)OC(C)(C)C=C3 | – | – | – |
| – | CCCc1cc(=O)oc2c3c(cc(OS(=O)(=O)c4ccc(C)cc4)c12)OC(C)CC3=O (centres unmarked) [Example 5a-101, 5-(p-tolyl)sulfonyloxy-8-methyl-4-n-propyl-2H-benzo[2,3-f]dipyranyl-2,10-dione] | 4.2 (≈ 9.49 µM) | 6.66 (≈ 15.1 µM) | MIC90 [1, 2]: < 10 µg/mL |
| – | CCCc1cc(=O)oc2c3c(cc(O)c12)OC(c1ccccc1)CC3=O (centres unmarked) [Example 5a-16, benzo[1,2-b:3,4-b′]-dipyranyl-5-hydroxyl-8-phenyl-2,10-dione] | 22.5 (≈ 64.2 µM) | 25.1 (≈ 71.7 µM) | – |
| – | CC1CC(=O)c2c(cc(O)c3c(CCC(F)(F)F)cc(=O)oc23)O1 (centres unmarked) [Example 5a-71, benzo[1,2-b:3,4-b′]-dipyranyl-5-hydroxyl-8-methyl-4-((3,3′,3″-trifluoro)-n-propyl)-2,10-dione] | 15.4 (≈ 45.1 µM) | 29.9 (≈ 87.4 µM) | – |
| – | CCCc1cc(=O)oc2cc3c(c(O)c12)C(=O)CC(CCC)O3 (centres unmarked) [Example 5b-14, benzo[1,2-b:3,4-b′]-dipyranyl-5-hydroxyl-4,8-di-n-propyl-2,6-dione] | 6.59 (≈ 20.8 µM) | > 100 | – |

| melting point | SMILES | IC50 ([1]; MABA, H37Rv) [µg/mL] | MIC90 ([1]; MABA, H37Rv, read-out: MIC90) [µg/mL] | further results |
| --- | --- | --- | --- | --- |
| – | Cc1cc(=O)oc2cc3c(c(O)c12)C(=O)CC(C)O3 (centres unmarked) [Example 5b-1, benzo[1,2-b:3,4-b′]-dipyranyl-5-hydroxyl-4,8-dimethyl-2,6-dione] | 43.1 (≈ 165 µM) | > 100 | – |
| – | CCCc1cc(=O)oc2c1c(O)cc1occc(=O)c12 [Example 5a-13, 5-hydroxyl-4-n-propyl-benzo[2,3-f]-pyranyl-2,10-dione] | 46.7 (≈ 172 µM) | 53.4 (≈ 196 µM) | – |
| – | CCCc1cc(=O)oc2cc3c(c(O)c12)C(=O)CC(c1ccccc1)O3 (centres unmarked) [Example 5b-16, benzo[1,2-b:3,4-b′]-dipyranyl-5-hydroxyl-8-phenyl-2,6-dione] | 4.31 (≈ 12.3 µM) | 5.41 (≈ 15.4 µM) | MIC90 [1, 2]: < 10 µg/mL |
| – | CCCCc1cc(=O)oc2c3c(c4c(c12)OC(C)(C)C=C4)OC(C)CC3=O (centres unmarked) [Example 36] | 24.2 (≈ 65.8 µM) | 36.6 (≈ 99.3 µM) | – |
| – | O=c1oc2cc(O)cc(O)c2c2c1CCC2 [Example 6-26, 3,4-cyclopentyl-5,7-dihydroxy-coumarin] | 9.97 (≈ 45.7 µM) | 24.4 (≈ 112 µM) | – |
| 129 to 131 °C | CCCc1cc(=O)oc2c3c(c4c(c12)OC(C)(C)C=C4)OC(CNS(=O)(=O)c1ccc(F)cc1)CC3=O (centres unmarked) | – | – | – |
| – | CCCc1cc(=O)oc2cc3c(c(O)c12)C(=O)CC(C)O3 (centres unmarked) [Example 5b-11, benzo[1,2-b:3,4-b′]-dipyranyl-5-hydroxyl-4-n-propyl-8-methyl-2,6-dione] | 95.3 (≈ 330 µM) | > 100 | – |
| 108 to 109 °C | CCCc1cc(=O)oc2c3c(c4c(c12)OC(C)(C)C=C4)OC(CNS(=O)(=O)c1ccc(OC)cc1)CC3=O (centres unmarked) | – | – | – |
| 127 to 128 °C | CCCc1cc(=O)oc2c3c(c4c(c12)OCC(C)=C4)OC(C)CC3=O (centres unmarked) | – | – | – |
| 161 to 162 °C | CCCc1cc(=O)oc2c(-c3cccn3C(C)C)c(O)c3c(c12)OC(C)(C)C=C3 | – | – | – |
| 119 to 121 °C | CCCCC1C=Cc2c3c(c4oc(=O)c(F)c(CCC)c4c2O1)C(=O)CC(C)O3 (centres unmarked) | – | – | – |
| 140 to 142 °C | CCCc1c(Cl)c(=O)oc2c3c(c4c(c12)OC(CCC)C=C4)OC(C)CC3=O (centres unmarked) | – | – | – |
| 147 to 149 °C | C/C=C/C1C=Cc2c3c(c4oc(=O)cc(CCC(F)(F)F)c4c2O1)C(=O)CC(C)O3 (centres unmarked) | – | – | – |
| – | Cc1c(Cl)c(=O)oc2cc3c(c(O)c12)C(=O)CC(C)O3 (centres unmarked) [Example 5b-3, benzo[1,2-b:3,4-b′]-dipyranyl-5-hydroxyl-4,8-dimethyl-3-chloro-2,6-dione] | 90.5 (≈ 307 µM) | > 100 | – |
| – | Cc1c(Cc2ccccc2)c(=O)oc2c3c(c4c(c12)OC(C)(C)C=C4)OC(C)CC3=O (centres unmarked) [Example 4] | 7.52 (≈ 18 µM) | > 100 | – |
| – | CCCc1cc(=O)oc2c3c(cc(O)c12)O[C@@H]1CCCC[C@@H]1C3=O [Example 5a-19, benzo[1,2-b:3,4-b′]-dipyranyl-5-hydroxyl-8,9-cis-cyclohexyl-2,10-dione] | 83.1 (≈ 253 µM) | > 100 | – |
| – | CCCc1c(Cl)c(=O)oc2c3c(cc(O)c12)OC(C)CC3=O (centres unmarked) [Example 5a-20, benzo[1,2-b:3,4-b′]-dipyranyl-5-hydroxyl-8-methyl-3-chloro-4-n-propyl-2,10-dione] | 26.9 (≈ 83.5 µM) | 42 (≈ 130 µM) | – |
| – | CCCc1cc(=S)oc2c3c(cc(OS(=O)(=O)c4ccc(C)cc4)c12)OC(C)CC3=O (centres unmarked) [Example 5a-102, 5-(p-tolyl)sulfonyloxy-8-methyl-4-n-propyl-2-thio-2H-benzo[2,3-f]dipyranyl-2,10-dione] | 5.48 (≈ 12 µM) | 6.24 (≈ 13.6 µM) | MIC90 [1, 2]: < 10 µg/mL |
| – | Cc1c(Cl)c(=O)oc2c3c(c4c(c12)OC(C)(C)C=C4)OC(C)CC3=O (centres unmarked) [Example 3] | 33.4 (≈ 92.5 µM) | > 100 | – |
| 148 to 149 °C | CCCc1cc(=O)oc2c3c(c4c(c12)OC(C)(C)C=C4)OC(CN1CCCC1)CC3=O (centres unmarked) | – | – | – |

| SMILES | melting point | IC50 ([1]; MABA, H37Rv) [µg/mL] | MIC90 ([1]; MABA, H37Rv, read-out: MIC90) [µg/mL] | further results |
| --- | --- | --- | --- | --- |
| CCCc1c(F)c(=O)oc2c3c(c4c(c12)OC(c1ccccc1)C=C4)OC(C)CC3=O (centres unmarked) [Example 43, 10-methyl-4-n-propyl-6-phenyl-3-fluoro-2H,6H,12H-benzo[1,2-b:3,4-b′:5,6-b″]-tripyranyl-2,12-dione] | 128 to 129 °C | 6.42 (≈ 15.3 µM) | 10.8 (≈ 25.7 µM) | – |
| CCc1c(F)c(=O)oc2c3c(c4c(c12)OCC(C)=C4)OC(C)CC3=O (centres unmarked) [Example 93, 4-ethyl-3-fluoro-7,10-dimethyl-2H,6H,12H-benzo[1,2-b:3,4-b′:5,6-b″]-tripyranyl-2,12-dione] | 118 to 120 °C | 76.2 (≈ 221 µM) | > 100 | – |
| CCc1c(F)c(=O)oc2c3c(c4c(c12)OC(CC)C=C4)OC(C)CC3=O (centres unmarked) [Example 55, 10-methyl-4,6-diethyl-3-fluoro-2H,6H,12H-benzo[1,2-b:3,4-b′:5,6-b″]-tripyranyl-2,12-dione] | 144 to 146 °C | < 0.2 | 1.07 (≈ 2.99 µM) | MIC90 [1, 2]: < 10 µg/mL |
| Cc1cc(=O)oc2c3c(c4c(c12)OC(C)(C)C=C4)OC(C)CC3=O (centres unmarked) [Example 1, 4,6,6,10-tetramethyl-2H,6H,12H-benzo[1,2-b:3,4-b′:5,6-b″]-tripyranyl-2,12-dione] | 213 to 215 °C | 39.2 (≈ 120 µM) | 59.5 (≈ 182 µM) | – |
| CCCc1c(Cl)c(=O)oc2c3c(c4c(c12)OC(CC)C=C4)OC(C)CC3=O (centres unmarked) [Example 54, 10-methyl-4-n-propyl-6-ethyl-3-chloro-2H,6H,12H-benzo[1,2-b:3,4-b′:5,6-b″]-tripyranyl-2,12-dione] | 145 to 147 °C | 36.5 (≈ 93.9 µM) | 61.8 (≈ 159 µM) | – |
| CCCc1c(F)c(=O)oc2c3c(c4c(c12)OC(CCC)C=C4)OC(C)CC3=O (centres unmarked) [Example 32, 10-methyl-3-fluoro-4,6-di(-n-propyl)-2H,6H,12H-benzo[1,2-b:3,4-b′:5,6-b″]-tripyranyl-2,12-dione] | 123 to 124 °C | 78.3 (≈ 203 µM) | > 100 | – |
| CC1CC(=O)c2c(c3c(c4c(-c5ccc(N)cc5)cc(=O)oc24)OC(C)(C)C=C3)O1 (centres unmarked) [Example 23, 6,6,10-trimethyl-4-p-aminophenyl-2H,6H,12H-benzo[1,2-b:3,4-b′:5,6-b″]-tripyranyl-2,12-dione] | 149 to 151 °C | 24.2 (≈ 60 µM) | 27.6 (≈ 68.4 µM) | – |
| CCCCc1cc(=O)oc2c3c(c4c(c12)OC(CCCC)C=C4)OC(C)CC3=O (centres unmarked) [Example 38] | 146 to 148 °C | 10.4 (≈ 26.3 µM) | 14.4 (≈ 36.4 µM) | – |
